Test system: U1 cells
Experiment: MTS staining for cell viability in U1 cell assay
Assay type: cell-based
Conditions: Table 6, MTS, read-out: TC50 (the source's name)
Summary of the method: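 U1 cells plated with 5 ng/mL TNF-α (final) and compound in 1/2-log dilutions from the highest concentration the stock allowed, then cultured 3 days. Cytotoxicity read by MTS tetrazolium dye reduction at assay end. Assay dropped if Trypan Blue viability was below 70%.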

Q: Which CC50 does the source give for “2-chloro-N-(4-methylphenyl)-4-(trifluoromethyl)-1,3-thazole-5-carboxamide [Compound 91161]” here?
A: 22.3 µM
